Results taken from patent publication US20040115626A1, “Human pgc-1 promoter” (priority 2000, published 2004).

Experiments:
[1] = system: hPGC-1 promoter; experiment: hPGC-1 promoter luciferase reporter assay in transiently transfected L6 cells; format: cell-based; details: for activity at 1 µM: 1 μM compound; for activity at 1 µM / activity at 5 µM / activity at 25 µM: reporter vector phPGC1(2.2)Luc, luciferase activity relative to no compound; for activity at 5 µM: 5 μM compound; for activity at 25 µM: 25 μM compound; for promoter activating ability relative to the case of adding no compound: at compound final concentration of 1 μM, 5 μM or 25 μM, phPGC1(2.2)Luc
Method: Various reporter vectors shown in FIG. 1 were transiently transfected into L6 cells. Specifically, L6 cells were cultured in a tissue culture dish having a diameter of 10 cm and at the time when it was reached 50% confluent, 5 μg of the above plasmid and 1.5 μg of a plasmid pCH110 containing β-galactosidase gene controlled by β-actin promoter were used in combination in order to standardize gene transfection efficiency and the plasmids were introduced into the cells using FuGENE™6 (BOEHRINGER MANNHEIM, USA, 1814 443). After 24 hours, the cells were transferred into a 96-well culture dish, followed by additional 6 hours of culture. From the reports until now, since it is known that 9-cis-RETINOIC ACID (one of vitamin A acids) increases the expression of PGC-1 gene derived from mouse in cells (Cell, 92, 829-839 (1998)), 9-cis-RETINOIC ACID (SIGMA, USA, R4643) having a final concentration of 1 μM was added and the mixture was treated for 24 hours. Then, the cells were dissolved with a cell dissolving liquid LCβ (Toyo Ink, Japan) and luciferase activity thereof was measured using a PicaGene Luminescent Kit (Toyo Ink, Japan, 309-04321). By the way, all the activity measurements were carried out three times per measurement and each experiment was repeated at least twice to confirm the reproducibility.
Each reporter activity was standardized by β-galactosidase activity and expressed by a relative value wherein the value in the case of adding no compound was regarded as 1. In L6 cells, hPGC-1 reporter was increased a maximum of about 2.5 times by the treatment with 9-cis-RETINOIC ACID and thus a result consistent with the report that the expression of PGC-1 gene derived from mouse was enhanced by 9-cis-RETINOIC ACID was obtained.
Using the reporter vector phPGC1(2.2)Luc in the method described in Example 5, screening of a compound stimulating an hPGC-1 promoter activity was carried out wherein commercially available compounds were used as test compounds. […] By the way, Compound B, Compound E and Compound G are commercially available as the code number 4K@UH1-646 of INTERBIOSCREEN, as the code number MS0447 of MARLIN and as the code number A1773/0075171 of ZELINSKY, respectively and are 5-(4-fluorobenzylidene)-2,4-thiazolidinedione, 5-(4-bromobenzylidene)-2,4-thiazolidinedione, 2-(3-aminophenyl)-5-benzoyl-(1H)-benzimidazole, respectively.

[2] = system: L6 cells; experiment: Measurement of mitochondrial enzymatic activity (WST-1 mitochondrial dehydrogenase colorimetric assay) in L6 cells; format: cell-based, rat; details: for activity at 1 µM / activity at 5 µM / activity at 25 µM: Rattus norvegicus, 24 hours, relative to no compound
Method: Rat myoblast L6 (ATCC, CRL-1458) was maintained Dulbecco's modified Eagle medium containing 10% fetal bovine serum (GIBCO BRL, USA, 11965-092) and cultured in a wet air containing 5% CO2 at 37° C.
For the investigation of mitochondrial enzymatic activity of cells, a reagent WST-1 (DOJINDO, 342-06451) was used, which enabled the measurement of mitochondrial dehydrogenase activity of living cells by colorimetric assay method. Specifically, L6 cells were cultured in a tissue culture dish having a diameter of 10 cm and after reached confluent, the cells were transferred into a 96-well tissue culture dish. At that time, the medium was changed to Dulbecco's modified Eagle medium containing no Phenol Red (GIBCO BRL, USA, 21063-029). […] After the addition of each compound and 24 hours of treatment, the medium containing the compound was sucked and discarded and thereto were added 100 μl of Dulbecco's modified Eagle medium containing no Phenol Red and no fetal bovine serum and 10 μL of PBS containing 5 mM WST-1 and 0.2 mM 1-Methoxy PMS (DOJINDO, 345-04001). After 4 hours of reaction at 37° C., absorbance was measured at a measuring wavelength of 450 nm. In this regard, all the activity measurements were carried out three times per measurement and each experiment was repeated at least twice to confirm the reproducibility.
Tables 2(a) and 2(b) show the results of 9-cis-RETINOIC ACID and the compounds obtained in Example 6, respectively. Each value was expressed by a relative value wherein the absorbance of the sample containing no cell was subtracted as a background from each absorbance and the value in the case of adding no compound was regarded as 1. […] As mentioned above, it was shown that substances stimulating an hPGC-1 promoter activity have an action to activate mitochondrial enzymes.

Row | SMILES | increase of hPGC-1 reporter activity (maximum) ([1]; 1 μM, 24 hours, normalized with β-galactosidase, no compound = 1, maximum over the reporter vectors) | reporter activity ([1]; 1 μM, 24 hours, reporter vector hPGC1(0.1)Luc) | activity enhancement (9-cis-RETINOIC ACID responsibility) of reporter ([1]; 1 μM, 24 hours, reporter vectors hPGC1(0.2)Luc to hPGC1(5.2)Luc) | mitochondrial enzymatic activity (statement in words) ([2]; 24 hours treatment, Dunnett test) | activity at 1 µM [1] | activity at 5 µM [1] | activity at 25 µM [1] | promoter activating ability relative to the case of adding no compound [1] | activity at 1 µM [2] | activity at 5 µM [2] | activity at 25 µM [2]
1 | CC1=C(/C=C/C(C)=C\C=C\C(C)=C\C(=O)O)C(C)(C)CCC1 [9-cis-RETINOIC ACID, reference compound] | about 2.5 times | completely lost | strongly observed | increased mitochondrial enzymatic activity with a significant difference | – | – | – | – | – | – | –
2 | Nc1cccc(-c2nc3cc(C(=O)c4ccccc4)ccc3[nH]2)c1 [Compound G, 2-(3-aminophenyl)-5-benzoyl-(1H)-benzimidazole] | – | – | – | – | 207% | 175% | 91% | more than twice | 80% | 102% | 176%
3 | O=C1NC(=O)C(=Cc2ccc(F)cc2)S1 [Compound B, 5-(4-fluorobenzylidene)-2,4-thiazolidinedione] | – | – | – | – | 160% | 203% | 202% | more than twice | 94% | 121% | 175%
4 | O=C1NC(=O)C(=Cc2ccc(Br)cc2)S1 [Compound E, 5-(4-bromobenzylidene)-2,4-thiazolidinedione] | – | – | – | – | 146% | 208% | 157% | more than twice | 102% | 141% | 285%
